Measurements taken from ChEMBL document CHEMBL1134173, “FR131535, a novel water-soluble echinocandin-like lipopeptide: synthesis and biological properties” (Bioorg Med Chem Lett, 2001).
In brackets after ≈: the same amount, converted by molar mass. Numbered stars: 1 amine (or outer) side, 2 acyl side, 3 side chain; on linkers, the order of the positions; unused ones are H or OH. Bridge positions count the residues as written; N and C are the ends. Square brackets hold non-standard residues; d marks the D form. Peptide text beside a SMILES is read from it. * marks the point of attachment. hTyr(3S-OH,4S-OH,3'-OSO3H) = N[C@H](C(=O)O)[C@H](O)[C@@H](O)c1ccc(O)c(OS(=O)(=O)O)c1; Orn(4R-OH,5R-OH) = O=C([C@H](C[C@@H](O)[C@@H](O)N[*:3])N[*:1])[*:2]; Orn(4R-OH,5S-OH) = O=C([C@H](C[C@@H](O)[C@H](O)N[*:3])N[*:1])[*:2]; hTyr(3S-OH,4S-OH) = N[C@H](C(=O)O)[C@H](O)[C@@H](O)c1ccc(O)cc1; Pro(3S-OH,4S-Me) = C[C@H]1CN[C@H](C(=O)O)[C@H]1O; Benzoyl(4-octyloxy) = CCCCCCCCOc1ccc(C(=O)*)cc1; Gln(3R-OH) = NC(=O)C[C@@H](O)[C@H](N)C(=O)O; Palmitoyl = CCCCCCCCCCCCCCCC(=O)*; Hyp = O=C(O)[C@@H]1C[C@@H](O)CN1

How the values were obtained:
Candida albicans [1] = assay: In vivo effective dose for antifungal activity on sc administration in female mice infected with 2.5*10e6 cells/mL of Candida albicans at day 14; assay type: functional
Candida albicans [2] = assay: In vivo effective dose for antifungal activity on sc administration in female mice infected with 2.5*10e6 cells/mL of Candida albicans at day 10; assay type: functional
Cyberlindnera jadinii = assay: In vitro antifungal activity against Candida utilis YC123 at 37 degrees C for 22h; assay type: functional, organism-based; details: Williopsis jadinii
Pichia kudriavzevii = assay: In vitro antifungal activity against Candida krusei YC109 at 37 degrees C for 22h; assay type: functional, organism-based
Mus musculus = species: Mus musculus; assay: Minimum lytic concentration that lysed red blood cells in mouse; assay type: functional
Candida albicans [3] = assay: In vitro antifungal activity against Candida albicans FP582 at 37 degrees C for 22h; assay type: functional, organism-based
Aspergillus fumigatus = assay: In vitro antifungal activity against Aspergillus fumigatus FD050 at 37 degrees C for 22h; assay type: functional, organism-based
Homo sapiens [4] = species: Homo sapiens; assay: Lytic concentration for hemolytic activity in human by akaishi method; assay type: functional
Candida albicans [5] = assay: In vitro antifungal activity against Candida albicans FP629 at 37 degrees C for 22h; assay type: functional, organism-based
Cryptococcus neoformans [6] = assay: In vitro inhibitory concentration degrees C for 48 hr; assay type: functional, organism-based
Candida albicans [7] = assay: In vitro inhibitory concentration required for antifungal activity against Candida albicans FP578 at 37 degrees C for 22h; assay type: functional, organism-based
Aspergillus niger = assay: In vitro antifungal activity against Aspergillus niger ATCC 9642 at 37 degrees C for 22h; assay type: functional, organism-based; details: ATCC 9642, 22 h
Candida albicans [8] = assay: In vitro antifungal activity against Candida albicans FP633 at 37 degrees C for 22h; assay type: functional, organism-based
Homo sapiens [9] = species: Homo sapiens; assay: Minimum lytic concentration that lysed red blood cells in human; assay type: functional
Candida tropicalis = assay: In vitro antifungal activity against Candida tropicalis YC118 at 37 degrees C for 22h; assay type: functional, organism-based
Candida albicans [10] = assay: Compound was tested for inhibitory activity against 1,3-beta-glucan synthase from Candida albicans 6406; assay type: functional
Cryptococcus neoformans [11] = assay: In vitro antifungal activity against Cryptococcus neoformans YC203 at 30 degrees C for 48 hr; assay type: functional, organism-based
Candida albicans [12] = assay: In vitro antifungal activity against Candida albicans FP578 at 37 degrees C for 22h; assay type: functional, organism-based
Pneumocystis carinii [13] = assay: Evaluated for inhibitory growth of Pneumocystis carinii cysts in lungs administered at the dose of 10 mg/kg expressed as number of cysts/lungs for 3 weeks; assay type: functional
Pneumocystis carinii [14] = assay: Evaluated for inhibitory growth of Pneumocystis carinii cysts in lungs administered at the dose of 10 mg/kg expressed as number of cysts/lungs for 8 weeks; assay type: functional

Row | Compound | ED50 (Candida albicans [1]) [mg/kg] | ED50 (Candida albicans [2]) [mg/kg] | IC50 (Cyberlindnera jadinii) [µg/mL] | IC50 (Pichia kudriavzevii) [µg/mL] | MLC (Mus musculus) [µg/mL] | IC50 (Candida albicans [3]) [µg/mL] | IC50 (Aspergillus fumigatus) [µg/mL] | LC30 (Homo sapiens [4]) [µg/mL] | IC50 (Candida albicans [5]) [µg/mL] | IC50 (Cryptococcus neoformans [6]) [µg/mL] | IC50 (Candida albicans [7]) [µg/mL] | IC50 (Aspergillus niger) [µg/mL] | IC50 (Candida albicans [8]) [µg/mL] | MLC (Homo sapiens [9]) [µg/mL] | IC50 (Candida tropicalis) [µg/mL] | IC50 (Candida albicans [10]) [µg/mL] | IC50 (Cryptococcus neoformans [11]) [µg/mL] | IC50 (Candida albicans [12]) [µg/mL] | Activity (Pneumocystis carinii [13]) | Activity (Pneumocystis carinii [14])
1 | OC(Cn1cncn1)(Cn1cncn1)c1ccc(F)cc1F [FLUCONAZOLE] | 2.4 | < 1 |  |  |  |  |  |  |  |  |  |  |  |  |  |  |  |  |  | 
2 | CCCCCCCCOc1ccc(C(=O)N[C@H]2C[C@@H](O)[C@@H](O)NC(=O)[C@@H]3[C@@H](O)[C@@H](C)CN3C(=O)[C@H]([C@@H](C)O)NC(=O)[C@H]([C@H](O)[C@@H](O)c3ccc(O)cc3)NC(=O)[C@@H]3C[C@@H](O)CN3C(=O)[C@H]([C@@H](C)O)NC2=O)cc1 [CILOFUNGIN] ({Benzoyl(4-octyloxy)}-[Orn(4R-OH,5R-OH)]T[Hyp][hTyr(3S-OH,4S-OH)]T[Pro(3S-OH,4S-Me)]; lactam 1-C) | > 10 | 5 | 0.94 (≈ 0.912 µM) | 3.2 (≈ 3.11 µM) | > 500 | 0.24 (≈ 0.233 µM) | > 0.003 | > 500 | 0.47 (≈ 0.456 µM) | > 2.5 | 0.36 (≈ 0.349 µM) | 0.08 (≈ 0.0777 µM) | 0.39 (≈ 0.379 µM) | > 1000 | 0.94 (≈ 0.912 µM) |  |  |  |  | 
3 | C[C@@H]([C@H](N)C(=O)N[C@H](C(=O)O)[C@H]1O[C@@H](n2cc(C=O)nc2O)[C@H](O)[C@@H]1O)[C@H](O)c1ccc(O)cn1 |  |  |  |  |  |  |  |  |  |  |  |  |  |  |  | > 100 |  |  |  | 
4 | C[C@@H]1[C@H](O)[C@@H](C)/C=C/C=C/C=C/C=C/C=C/C=C/C=C/[C@H](O[C@@H]2O[C@H](C)[C@@H](O)[C@H](N)[C@@H]2O)C[C@@H]2O[C@](O)(C[C@@H](O)C[C@@H](O)[C@H](O)CC[C@@H](O)C[C@@H](O)CC(=O)O[C@H]1C)C[C@H](O)[C@H]2C(=O)O [AMPHOTERICIN B] |  |  | 0.47 (≈ 0.509 µM) | 1.6 (≈ 1.73 µM) |  | 0.55 (≈ 0.595 µM) | 0.62 (≈ 0.671 µM) |  | 0.39 (≈ 0.422 µM) |  | 0.39 (≈ 0.422 µM) | 1.9 (≈ 2.06 µM) | 0.39 (≈ 0.422 µM) |  | 0.62 (≈ 0.671 µM) |  | 0.39 (≈ 0.422 µM) |  |  | 
5 | CCCCCCCCCCCCCCCC(=O)N[C@H]1C[C@@H](O)[C@H](O)NC(=O)[C@@H]2[C@@H](O)[C@@H](C)CN2C(=O)[C@H]([C@H](O)CC(N)=O)NC(=O)[C@H]([C@H](O)[C@@H](O)c2ccc(O)c(OS(=O)(=O)O)c2)NC(=O)[C@@H]2C[C@@H](O)CN2C(=O)[C@H]([C@@H](C)O)NC1=O (Palmitoyl-[Orn(4R-OH,5S-OH)]T[Hyp][hTyr(3S-OH,4S-OH,3'-OSO3H)][Gln(3R-OH)][Pro(3S-OH,4S-Me)]; lactam 1-C) | 2.9 | 1.1 | 0.03 (≈ 0.0255 µM) | 0.14 (≈ 0.119 µM) | 31 (≈ 26.4 µM) | 0.004 (≈ 0.0034 µM) | 1.3 (≈ 1.11 µM) | 160 (≈ 136 µM) | 0.018 (≈ 0.0153 µM) |  |  | 0.004 (≈ 0.0034 µM) | 0.018 (≈ 0.0153 µM) | 31 (≈ 26.4 µM) | 0.09 (≈ 0.0766 µM) | 0.7 (≈ 0.596 µM) | > 2.5 | 0.025 (≈ 0.0213 µM) | <1.8 | 2
6 | COc1cc(Cc2cnc(N)nc2N)cc(OC)c1OC.Cc1cc(NS(=O)(=O)c2ccc(N)cc2)no1 [CO-TRIMOXAZOLE] |  |  |  |  |  |  |  |  |  |  |  |  |  |  |  |  |  |  | <1.8 | 4.1
7 | CCCCCCCCOc1ccc(C(=O)N[C@H]2C[C@@H](O)[C@H](O)NC(=O)[C@@H]3[C@@H](O)[C@@H](C)CN3C(=O)[C@H]([C@H](O)CC(N)=O)NC(=O)[C@H]([C@H](O)[C@@H](O)c3ccc(O)c(OS(=O)(=O)[O-])c3)NC(=O)[C@@H]3C[C@@H](O)CN3C(=O)[C@H]([C@@H](C)O)NC2=O)cc1.[Na+] [FR-131535] ({Benzoyl(4-octyloxy)}-[Orn(4R-OH,5S-OH)]T[Hyp][hTyr(3S-OH,4S-OH,3'-OSO3H)][Gln(3R-OH)][Pro(3S-OH,4S-Me)]; lactam 1-C) | 3.5 | 3 | 1.35 | 1.9 | > 500 | 0.39 | < 0.003 | > 500 | 0.47 |  |  | 0.16 | 0.47 | > 1000 | 0.47 | 2.8 | > 2.5 | 0.31 | <1.8 | 2.3
